Our source for the Activity and viability values is ChEMBL document CHEMBL1151406, “An investigation of the antiviral activity of Podophyllum peltatum” (J Nat Prod, 1982).

Structures are written as SMILES.

The test system of one data set is Vero. The data set is described as follows: Cytotoxicity against african green monkey Vero cells assessed as cell rounding at 1 uM. It counts as cell-based. The conditions noted are these: chlorocebus sabaeus.
The nature of data set [1]: Cytotoxicity against african green monkey Vero cells assessed as cell viability at 1 uM by trypan blue exclusion assay. It counts as cell-based. The conditions noted are these: chlorocebus sabaeus, read-out: Activity.
Data set [2] deals with Measles morbillivirus. The data set is described as follows: Antiviral activity against measles virus infected in african green monkey Vero cells assessed as cell rounding at 1 uM. In kind it is functional.
The test system of data set [3] is Measles morbillivirus. The data set is described as follows: Antiviral activity against measles virus infected in african green monkey Vero cells assessed as inhibition of virus-induced cytopathic effect at 1 uM. Also noted: scale not given: the % may be the effect or the level left. In kind it is functional. On the technique in general: Protection from cytopathic effect is a common read-out in antiviral testing.

The test system of data set [4] is Measles morbillivirus. The data set is described as follows: Antiviral activity against measles virus infected in african green monkey Vero cells assessed as plaque formation at 1 uM after 5 days by neutral red assay relative to control. In kind it is functional.
In a further data set the test system is Human alphaherpesvirus 1. The data set is described as follows: Antiviral activity against HSV1 infected in african green monkey Vero cells assessed as plaque formation at 1 uM after 4 days by neutral red assay relative to control. In kind it is functional.

In the case of `COc1cc([C@@H]2c3cc4c(c(O)c3C[C@H]3COC(=O)[C@@H]32)OCO4)cc(OC)c1OC` [BETA-PELTATIN A], the Activity is 5% in the data set on Vero; 50% in the data set on Measles morbillivirus [2]; 100% in the data set on Measles morbillivirus [3]; 15.1% in the data set with Measles morbillivirus [4]; 21.7% in the data set on Human alphaherpesvirus 1. Also, the viability at 1 µM in data set [1] was found to be 85.4%.

`COc1cc([C@@H]2c3cc4c(cc3[C@H](O)[C@H]3COC(=O)[C@@H]23)OCO4)cc(OC)c1OC` [AXL-1717]: the Activity in the data set with Vero is 15%; with Measles morbillivirus [2], 5%; in the data set with Measles morbillivirus [3] it was 100%; with Measles morbillivirus [4], 41.5%; in the data set with Human alphaherpesvirus 1, 84.4%. The viability at 1 µM in data set [1] turned out to be 89.9%.

Take `COc1cc([C@@H]2c3cc4c(c(O)c3C[C@H]3COC(=O)[C@@H]32)OCO4)cc(OC)c1O`: the Activity in the data set with Vero is 5%; in the data set on Measles morbillivirus [2], above 95%; with Measles morbillivirus [3], 25%; in the data set on Measles morbillivirus [4] it was 47.5%; in the data set on Human alphaherpesvirus 1, 31.1%. Further, the viability at 1 µM in data set [1] is 91.9%.

`COc1cc([C@@H]2c3cc4c(cc3C[C@H]3COC(=O)[C@@H]32)OCO4)cc(OC)c1OC` [DESOXYPODOPHYLLOTOXIN]: the Activity in the data set with Vero is 30%; in the data set on Measles morbillivirus [2], 50%; in the data set on Measles morbillivirus [3] it was 70%; in the data set with Measles morbillivirus [4], 19.8%; in the data set with Human alphaherpesvirus 1, 16.2%. Also, the viability at 1 µM in data set [1] came out at 90.7%.

As to `COc1cc([C@@H]2c3cc4c(cc3[C@H](O)[C@H]3COC(=O)[C@H]23)OCO4)cc(OC)c1OC` [PODOFILOX], the Activity in the data set with Vero is listed as 80%; with Measles morbillivirus [2], above 95%; in the data set with Measles morbillivirus [3], 25%; in the data set on Measles morbillivirus [4], 0.9%; in the data set with Human alphaherpesvirus 1, 11.7%. Moreover, the viability at 1 µM in data set [1] stood at 91.7%.
